According to US20240285631A1, “METHODS OF TREATING VASCULAR MALFORMATIONS” (priority 2023, published 2024):

System: human umbilical vein endothelial cells
Assay: Proliferation of human umbilical vein endothelial cells assessed by EdU uptake
Assay type: cell-based
Details: in vitro, dose response
Source text: FIG. 16 illustrates palbociclib, CVT-313 and ribociclib dose response effects on proliferation of human umbilical vein endothelial cells assessed by EdU uptake.
This example discusses that endothelial cell cycle dysregulation is a mechanism involved in the development of arterio-venous malformations in HHT, as well as other types of vascular malformations named above. Palbociclib, a FDA-approved cell cycle inhibitor, could be used to prevent arterio-venous and other malformations, including venous, capillary, lymphatic and cerebral cavernous malformations.

CN(C)C(=O)c1cc2cnc(Nc3ccc(N4CCNCC4)cn3)nc2n1C1CCCC1 [Ribociclib, 7-cyclopentyl-N,N-dimethyl-2-[(5-piperazin-1-ylpyridin-2-yl)amino]pyrrolo[2,3-d]pyrimidine-6-carboxamide]
EC proliferation assessed by EdU uptake: inhibit EC proliferation

COc1ccc(CNc2nc(N(CCO)CCO)nc3c2ncn3C(C)C)cc1 [CVT-313, 2-[2-hydroxyethyl-[6-[(4-methoxyphenyl)methylamino]-9-propan-2-ylpurin-2-yl]amino]ethanol]
EC proliferation assessed by EdU uptake: inhibit EC proliferation
